In patent US12329158B2, “Large-scale methods of uniformly coating packaging surfaces with a volatile antimicrobial to preserve food freshness” (AGROFRESH INC., priority 2013, dated 2025):
Converted amounts (≈) assume the structure as drawn.

What was measured:
Glomerella cingulata [1] = assay: Volatile MIC assay (Example 11); type: cell-based; conditions: Colletotrichum gloeosporioides, G. cingulata
Protocol: A 3-mL volume of full-strength Potato Dextrose Agar (PDA) is added to each well. After cooling, 1 μL of 1×10^5 spores per mL of Botrytis cinerea, Penicillium expansum, Alternaria alternata, Glomerella cingulata, Penicillium digitatum, Monilinia fruticola, Aspergillus brasiliensis, Colletotrichum acutatum, Fusarium sambucinum, Phytophthora capsici, Geotrichum candidum, Aspergillus niger, Diplodia gossypina or Diaporthe citrii suspension is spotted onto the center of the agar. […] The headspace around the inoculum is then sealed inside the well by the film with the adhering disk containing the fungicide by inverting the plates over the treated disks and sealing to prevent any of the chemical from flaking from the disk and falling onto the inoculated agar. After 3 days of storage at 23° C., cultures are evaluated for percent growth relative to control.

Botrytis cinerea [2] = assay: Volatilization from treated clamshells onto inoculated agar plates (Example 2); type: cell-based
Protocol: An in vitro assay was used to evaluate the ability of Compound A to volatilize from a clamshell to control fungal pathogenic infection when applied to the clamshell by various application techniques. Multiple empty 1-lb PET clamshells (ProducePackaging.com, #036QT) were placed inside triplicate air-tight 36 L chamber (Fisher Scientific, Catalogue #08-642-23C) fitted with a bulkhead septum port (Swagelok, SS-401-61, Solon, OH).
(§1) Compound A headspace was permitted to equilibrate overnight at 21° C.
After spraying or painting, the clamshell was then permitted to dry for 5 minutes. After coating the clamshells with Compound A using various applications (i.e., sublimation, spraying, or painting), 10-cm Petri plates containing half strength Potato Dextrose Agar were inoculated with 1 μL of 1×10^5 spores/ml Botrytis cinerea spore suspension. The inoculated petri plates were then sealed with a breathable film (AeraSeal; P/N: B-100, Excel Scientific, Victorville, CA), and placed inside the treated clamshell.
(Series I). After incubation, plates were removed and cultures were evaluated for percent growth relative to a control based on measurement of fungal colony diameter (mm).
Meanwhile, freshly prepared inoculated plates were placed inside the clamshell for an additional three (3) days of incubation (Series 2). This process, where freshly prepared inoculated plates were placed inside the clamshell, was repeated twice more, to produce a 12 full day evaluation of 4 series of 3 days each.

Glomerella cingulata [3] = assay: Volatile MIC assay (Example 9); type: cell-based; conditions: Colletotrichum gloeosporioides, 72 h, headspace concentration, 3 days at 23 C, read-out: MIC (mg/L) GLOMCI
Protocol: (§2) A 3-mL volume of full-strength Potato Dextrose Agar (PDA) is added to each well. […] Plates are inoculated immediately prior to volatile fungicide treatment. A Whatman #1 filter disk (Cat. No. 1001-0155) is placed, in duplicate, on the underside of a polyethylene PCR plate sealing film. […] The acetone is permitted to evaporate for 5 minutes. The headspace around the inoculum is then sealed inside the well by the film with the adhering disk containing the fungicide by inverting the plates over the treated disks and sealing to prevent any of the chemical from flaking from the disk and falling onto the inoculated agar.

Penicillium expansum = assay: Volatile MIC assay (Example 9); type: cell-based; conditions: 72 h, headspace concentration, 3 days at 23 C, read-out: MIC (mg/L) PENIEX
Protocol: as §2

Botrytis cinerea [4] = assay: Volatile MIC assay (Example 9); type: cell-based; conditions: 72 h, headspace concentration, 3 days at 23 C, read-out: MIC (mg/L) BOTRCI
Protocol: as §2

Alternaria alternata = assay: Volatile MIC assay (Example 9); type: cell-based; conditions: 72 h, headspace concentration, 3 days at 23 C, read-out: MIC (mg/L) ALTEAL
Protocol: as §2

Monilinia fructicola = assay: Volatile MIC assay (Example 9); type: cell-based; conditions: 72 h, headspace concentration, 3 days at 23 C, read-out: MIC (mg/L) MONIFC
Protocol: as §2

Botrytis cinerea [5] = assay: In-clamshell Compound A applied by painting, spraying or sublimation; strawberries (Example 1); type: in vivo; conditions: 5 mg/clamshell
Protocol: An in vivo assay was used to evaluate the ability of Compound A to volatilize from a clamshell chamber and control pathogenic infection when applied by various techniques. Multiple empty 1-lb PET clamshells (ProducePackaging.com, #036QT) were placed inside triplicate air-tight 36 L chamber (Fisher Scientific, Catalogue #08-642-23C) fitted with a bulkhead septum port (Swagelok, SS-401-61, Solon, OH).
as §1
Five milligrams of Compound A was dissolved in 1 ml of ethanol prior to being uniformly administered to the interior of the clamshell by painting or spraying, and then dried for 5 minutes. After coating the clamshells with Compound A using various application techniques (i.e., sublimation, spraying, or painting), eight ethanol-washed strawberries were placed in the clamshell with stem end facing downwards. Each strawberry fruit was wounded using a T15 screwdriver tip to a uniform depth of eight mm (8 mm). […] Uninoculated strawberries were removed from their commercial package, and directly transferred into treated clamshells without any washing or inoculation steps.
Treated clamshells lids were closed, and then placed at 1° C. for an initial time period of 5 days. Clamshells were then removed from low temperature, and held for a second time period of 6 days at room temperature where the point of inoculation on the strawberry fruits was assessed for indication of disease incidence reported as a percentage (%). Severity of disease incidence was also reported.

With OB1OCc2cc(F)ccc21 [Compound A, 5-fluoro-1,3-dihydro-1-hydroxy-2,1-benzoxaborole] the MIC (Glomerella cingulata [1]) was 17.9 µg/mL (≈ 118 µM), the “Mycelial Growth Inhibition (%)” value (Botrytis cinerea [2]; Paint, 0.2 mg/clamshell, Series 1 (0 to 3 days)) was 3.4% and the “Mycelial Growth Inhibition (%)” value (Botrytis cinerea [2]; Paint, 1 mg/clamshell, Series 1 (0 to 3 days)) was 100.0%. The “Mycelial Growth Inhibition (%)” value (Botrytis cinerea [2]; Paint, 1 mg/clamshell, Series 2 (3 to 6 days)) was 18.8%, the “Mycelial Growth Inhibition (%)” value (Botrytis cinerea [2]; Paint, 5 mg/clamshell, Series 1 (0 to 3 days)) was 100.0% and the “Mycelial Growth Inhibition (%)” value (Botrytis cinerea [2]; Paint, 5 mg/clamshell, Series 2 (3 to 6 days)) was 100.0%. For the same compound, the “Mycelial Growth Inhibition (%)” value (Botrytis cinerea [2]; Paint, 5 mg/clamshell, Series 3 (6 to 9 days)) was 57.5%, the “Mycelial Growth Inhibition (%)” value (Botrytis cinerea [2]; Paint, 5 mg/clamshell, Series 4 (9 to 12 days)) was 44.7% and the “Mycelial Growth Inhibition (%)” value (Botrytis cinerea [2]; Spray, 0.2 mg/clamshell, Series 1 (0 to 3 days)) was 81.2%. The “Mycelial Growth Inhibition (%)” value (Botrytis cinerea [2]; Spray, 1 mg/clamshell, Series 1 (0 to 3 days)) was 100.0%, the “Mycelial Growth Inhibition (%)” value (Botrytis cinerea [2]; Spray, 1 mg/clamshell, Series 2 (3 to 6 days)) was 18.6% and the “Mycelial Growth Inhibition (%)” value (Botrytis cinerea [2]; Spray, 1 mg/clamshell, Series 3 (6 to 9 days)) was 0.0%. For the same compound, the “Mycelial Growth Inhibition (%)” value (Botrytis cinerea [2]; Spray, 5 mg/clamshell, Series 1 (0 to 3 days)) was 100.0%, the “Mycelial Growth Inhibition (%)” value (Botrytis cinerea [2]; Spray, 5 mg/clamshell, Series 2 (3 to 6 days)) was 100.0% and the “Mycelial Growth Inhibition (%)” value (Botrytis cinerea [2]; Spray, 5 mg/clamshell, Series 3 (6 to 9 days)) was 61.2%. The “Mycelial Growth Inhibition (%)” value (Botrytis cinerea [2]; Spray, 5 mg/clamshell, Series 4 (9 to 12 days)) was 64.9%, the “Mycelial Growth Inhibition (%)” value (Botrytis cinerea [2]; Sublimation, 0.2 mg/clamshell, Series 1 (0 to 3 days)) was 90.9% and the “Mycelial Growth Inhibition (%)” value (Botrytis cinerea [2]; Sublimation, 0.2 mg/clamshell, Series 3 (6 to 9 days)) was 0.0%. The “Mycelial Growth Inhibition (%)” value (Botrytis cinerea [2]; Sublimation, 1 mg/clamshell, Series 1 (0 to 3 days)) was 90.1%, the “Mycelial Growth Inhibition (%)” value (Botrytis cinerea [2]; Sublimation, 5 mg/clamshell, Series 1 (0 to 3 days)) was 100.0% and the “Mycelial Growth Inhibition (%)” value (Botrytis cinerea [2]; Sublimation, 5 mg/clamshell, Series 2 (3 to 6 days)) was 100.0%. The “Mycelial Growth Inhibition (%)” value (Botrytis cinerea [2]; Sublimation, 5 mg/clamshell, Series 3 (6 to 9 days)) was 83.1%, the “Mycelial Growth Inhibition (%)” value (Botrytis cinerea [2]; Sublimation, 5 mg/clamshell, Series 4 (9 to 12 days)) was 84.4% and the MIC (Glomerella cingulata [3]) was < 0.6 mg/L. The MIC (Penicillium expansum) was 2.2 mg/L (≈ 14.5 µM), the MIC (Botrytis cinerea [4]) was 2.2 mg/L (≈ 14.5 µM) and the MIC (Alternaria alternata) was < 0.6 mg/L. The MIC (Monilinia fructicola) was < 0.6 mg/L, the “Gray Mold Incidence (%)” value (Botrytis cinerea [5]; Inoculated Fruit, Paint, Day 0) was 0.0% and the “Gray Mold Incidence (%)” value (Botrytis cinerea [5]; Inoculated Fruit, Paint, Day 1) was 0.0%. For the same compound, the “Gray Mold Incidence (%)” value (Botrytis cinerea [5]; Inoculated Fruit, Paint, Day 2) was 0.0%, the “Gray Mold Incidence (%)” value (Botrytis cinerea [5]; Inoculated Fruit, Paint, Day 3) was 0.0% and the “Gray Mold Incidence (%)” value (Botrytis cinerea [5]; Inoculated Fruit, Paint, Day 4) was 0.0%. The “Gray Mold Incidence (%)” value (Botrytis cinerea [5]; Inoculated Fruit, Paint, Day 5) was 0.0%, the “Gray Mold Incidence (%)” value (Botrytis cinerea [5]; Inoculated Fruit, Paint, Day 6) was 0.0% and the “Gray Mold Incidence (%)” value (Botrytis cinerea [5]; Inoculated Fruit, Spray, Day 0) was 0.0%. The “Gray Mold Incidence (%)” value (Botrytis cinerea [5]; Inoculated Fruit, Spray, Day 1) was 0.0%, the “Gray Mold Incidence (%)” value (Botrytis cinerea [5]; Inoculated Fruit, Spray, Day 2) was 0.0% and the “Gray Mold Incidence (%)” value (Botrytis cinerea [5]; Inoculated Fruit, Spray, Day 3) was 0.0%. The “Gray Mold Incidence (%)” value (Botrytis cinerea [5]; Inoculated Fruit, Spray, Day 4) was 0.0%, the “Gray Mold Incidence (%)” value (Botrytis cinerea [5]; Inoculated Fruit, Spray, Day 5) was 0.0% and the “Gray Mold Incidence (%)” value (Botrytis cinerea [5]; Inoculated Fruit, Spray, Day 6) was 0.0%. For the same compound, the “Gray Mold Incidence (%)” value (Botrytis cinerea [5]; Inoculated Fruit, Sublimation, Day 0) was 0.0%, the “Gray Mold Incidence (%)” value (Botrytis cinerea [5]; Inoculated Fruit, Sublimation, Day 1) was 0.0% and the “Gray Mold Incidence (%)” value (Botrytis cinerea [5]; Inoculated Fruit, Sublimation, Day 2) was 0.0%. The “Gray Mold Incidence (%)” value (Botrytis cinerea [5]; Inoculated Fruit, Sublimation, Day 3) was 0.0%, the “Gray Mold Incidence (%)” value (Botrytis cinerea [5]; Inoculated Fruit, Sublimation, Day 4) was 0.0% and the “Gray Mold Incidence (%)” value (Botrytis cinerea [5]; Inoculated Fruit, Sublimation, Day 5) was 0.9%. The “Gray Mold Incidence (%)” value (Botrytis cinerea [5]; Inoculated Fruit, Sublimation, Day 6) was 0.9%, the “Gray Mold Incidence (%)” value (Botrytis cinerea [5]; Uninoculated Fruit, Paint, Day 0) was 0.0% and the “Gray Mold Incidence (%)” value (Botrytis cinerea [5]; Uninoculated Fruit, Paint, Day 1) was 0.3%. The “Gray Mold Incidence (%)” value (Botrytis cinerea [5]; Uninoculated Fruit, Paint, Day 2) was 3.9%, the “Gray Mold Incidence (%)” value (Botrytis cinerea [5]; Uninoculated Fruit, Paint, Day 3) was 5.1% and the “Gray Mold Incidence (%)” value (Botrytis cinerea [5]; Uninoculated Fruit, Paint, Day 4) was 7.4%. For the same compound, the “Gray Mold Incidence (%)” value (Botrytis cinerea [5]; Uninoculated Fruit, Paint, Day 5) was 17.0%, the “Gray Mold Incidence (%)” value (Botrytis cinerea [5]; Uninoculated Fruit, Paint, Day 6) was 21.7% and the “Gray Mold Incidence (%)” value (Botrytis cinerea [5]; Uninoculated Fruit, Spray, Day 0) was 0.0%. For the same compound, the “Gray Mold Incidence (%)” value (Botrytis cinerea [5]; Uninoculated Fruit, Spray, Day 1) was 0.6%, the “Gray Mold Incidence (%)” value (Botrytis cinerea [5]; Uninoculated Fruit, Spray, Day 2) was 2.1% and the “Gray Mold Incidence (%)” value (Botrytis cinerea [5]; Uninoculated Fruit, Spray, Day 3) was 4.8%. The “Gray Mold Incidence (%)” value (Botrytis cinerea [5]; Uninoculated Fruit, Spray, Day 4) was 6.0%, the “Gray Mold Incidence (%)” value (Botrytis cinerea [5]; Uninoculated Fruit, Spray, Day 5) was 17.9% and the “Gray Mold Incidence (%)” value (Botrytis cinerea [5]; Uninoculated Fruit, Spray, Day 6) was 19.9%. For the same compound, the “Gray Mold Incidence (%)” value (Botrytis cinerea [5]; Uninoculated Fruit, Sublimation, Day 0) was 0.0%, the “Gray Mold Incidence (%)” value (Botrytis cinerea [5]; Uninoculated Fruit, Sublimation, Day 1) was 0.3% and the “Gray Mold Incidence (%)” value (Botrytis cinerea [5]; Uninoculated Fruit, Sublimation, Day 2) was 1.5%. The “Gray Mold Incidence (%)” value (Botrytis cinerea [5]; Uninoculated Fruit, Sublimation, Day 3) was 3.3%, the “Gray Mold Incidence (%)” value (Botrytis cinerea [5]; Uninoculated Fruit, Sublimation, Day 4) was 5.7% and the “Gray Mold Incidence (%)” value (Botrytis cinerea [5]; Uninoculated Fruit, Sublimation, Day 5) was 16.7%. For the same compound, the “Gray Mold Incidence (%)” value (Botrytis cinerea [5]; Uninoculated Fruit, Sublimation, Day 6) was 20.2%.
